Read-outs that look alike come from different tables or passages of the source.

Common to all, as to format: in vivo
One assay concerns Bean Aphid (Aphis fabae). Nature of the assay: Bean aphid (Aphis fabae), plant-dip test on nasturtium plants. As to conditions: 72 h, read-out: mortality of bean aphid in comparison with untreated controls. The protocol:
(§1) The active compounds were formulated in a mixture of 50 vol.-% acetone:50 vol.-% water. A nonionic surfactant (Kinetic®) was included in the solution at a volume of 0.01% v/v.
(§2) In the following tests, the formulated solutions of the active compounds were diluted to an active ingredient concentration of 300 ppm and the diluted solutions were applied in the below mentioned tests.
11.3 Bean Aphid (Aphis fabae)
Nasturtium plants grown in Metro mix in the 1st leaf-pair stage (variety ‘Mixed Jewel’) were infested with approximately 2-30 laboratory-reared aphids by placing infested cut plants on top of the test plants. The cut plants were removed after 24 hr. Each plant was dipped into the test solution to provide complete coverage of the foliage, stem, protruding seed surface and surrounding cube surface and allowed to dry in the fume hood. The treated plants were kept at about 25° C. with continuous fluorescent light. Aphid mortality is determined after 3 days.

For assay [1], the system named is Cotton Aphid (aphis gossypii), mixed life stages. Nature of the assay: Cotton aphid (Aphis gossypii), mixed life stages, leaf-dip test on cotton plants. The following applies: 120 h, read-out: mortality of cotton aphid in comparison with untreated controls. As to the method: as §1, §2
II.1 Cotton Aphid (aphis gossypii), Mixed Life Stages
Cotton plants at the cotyledon stage were infested prior to treatment by placing a heavily infested leaf from the main aphid colony on top of each cotyledon. The aphids were allowed to transfer overnight and the host leaf was removed. The infested cotyledons were then dipped and agitated in the test solution for 3 seconds and allowed to dry in a fume hood. Test plants were maintained under fluorescent lighting in a 24-hr photoperiod at 25° C. and 20-40% relative humidity. Aphid mortality on the treated plants, relative to mortality on untreated check plants, was determined after 5 days.

The test system of assay [2] is Green Peach Aphid (Myzus persicae), mixed life stages. Nature of the assay: Green peach aphid (Myzus persicae), mixed life stages, leaf-dip test on bell pepper plants. The following applies: 120 h, read-out: mortality of green peach aphid in comparison with untreated controls. The protocol:
as §1, §2
II.2 Green Peach Aphid (Myzus persicae), Mixed Life Stages
Bell pepper plants at the first true-leaf stage were infested prior to treatment by placing heavily infested leaves from the main aphid colony on top of the treatment plants. The aphids were allowed to transfer overnight to accomplish an infestation of 30-40 aphids per plant and the host leaves were removed. The infested leaves of the test plants were then dipped and agitated in the test solution for 3 seconds and allowed to dry in a fume hood. Test plants were maintained under fluorescent lighting in a 24-hr photoperiod at 25° C. and 20-40% relative humidity. Aphid mortality on the treated plants, relative to mortality on untreated check plants, was determined after 5 days.

The mark [3] stands for this setting: 300 ppm, infested nasturtium plants dipped, after 3 days.
Setting [4] is: 300 ppm, infested cotton cotyledons dipped 3 seconds, after 5 days.
[5] abbreviates: 300 ppm, infested bell pepper leaves dipped 3 seconds, after 5 days.

Consider `Cc1cccc(S(=O)(=O)NC(=O)Oc2ccccc2)c1C#N` [Example 25], for which the mortality at 300 ppm (in the assay on Bean Aphid (Aphis fabae); in assay [1]) was at least 86% throughout.

For `CC(=O)OCc1ccn(S(=O)(=O)c2cccc(C)c2C#N)c1` [Example 44], the mortality at 300 ppm (in the assay on Bean Aphid (Aphis fabae) (setting [3]); in assay [1] (setting [4]); in assay [2] (setting [5])) was at least 86% in each case.

On to `Cc1cccc(S(=O)(=O)N=S2CCCC2)c1C#N` [Example 38, 2-Cyano-3-methyl-N-(tetrahydro-thiphophen-1-ylidene)benzenesulfonamide], for which the mortality at 300 ppm (with Bean Aphid (Aphis fabae) (setting [3]); in assay [1] (setting [4]); in assay [2] (setting [5])) was at least 86% throughout.

As for `Cc1cccc(S(=O)(=O)NC(=O)OCc2ccccc2)c1C#N` [Example 28, N-(Benzyloxycarbonyl)-2-cyano-3-methyl-benzenesulfonamide], the mortality at 300 ppm in assay [1] and in assay [2] was at least 86% throughout.

Consider `CCNC(=O)N(CC)S(=O)(=O)c1cccc(C)c1C#N` [Example 21], for which the mortality at 300 ppm (in the assay with Bean Aphid (Aphis fabae) (setting [3]); in assay [1] (setting [4]); in assay [2] (setting [5])) was at least 86% throughout.

On to `N#Cc1c(OC(F)F)cccc1S(=O)(=O)n1cccc1` [Example 42], for which the mortality at 300 ppm (in the assay on Bean Aphid (Aphis fabae) (setting [3]); in assay [1] (setting [4]); in assay [2] (setting [5])) was at least 86% in each case.

As to `CCN(C(=O)Oc1ccccc1)S(=O)(=O)c1cccc(C)c1C#N` [Example 26], the mortality at 300 ppm (in the assay with Bean Aphid (Aphis fabae); in assay [1]) was at least 86% throughout.

`CCN(C(C)=O)S(=O)(=O)c1cccc(OC(F)F)c1C#N` [Example 15]: the mortality at 300 ppm (in the assay on Bean Aphid (Aphis fabae) (setting [3]); in assay [1] (setting [4]); in assay [2] (setting [5])) was at least 86% each time.

On to `CCOC(=NS(=O)(=O)c1cccc(OC(F)F)c1C#N)OCC` [Example 33], for which the mortality at 300 ppm (with Bean Aphid (Aphis fabae) (setting [3]); in assay [1] (setting [4]); in assay [2] (setting [5])) was at least 86% in each case.

Regarding `Cc1cccc(S(=O)(=O)N=S(C(C)C)C(C)C)c1C#N` [Example 40], the mortality at 300 ppm in assay [1] (setting [4]) and in assay [2] (setting [5]) was at least 86% throughout.

Take `CCOC(=NS(=O)(=O)c1cccc(C)c1C#N)OCC` [Example 31]: the mortality at 300 ppm (with Bean Aphid (Aphis fabae) (setting [3]); in assay [1] (setting [4]); in assay [2] (setting [5])) was at least 86% in each case.

In the case of `CCC(=O)NS(=O)(=O)c1cccc(C)c1C#N` [Example 13], the mortality at 300 ppm (in the assay on Bean Aphid (Aphis fabae) (setting [3]); in assay [1] (setting [4]); in assay [2] (setting [5])) was at least 86% in each case.

For `C#CCN(C(C)=O)S(=O)(=O)c1cccc(C)c1C#N` [Example 7], the mortality at 300 ppm (in the assay on Bean Aphid (Aphis fabae) (setting [3]); in assay [1] (setting [4]); in assay [2] (setting [5])) was at least 86% throughout.

In the case of `Cc1cccc(S(=O)(=O)n2cccc2)c1C#N` [Example 41, 2-Methyl-6-(pyrrole-1-sulfonyl)-benzonitrile], the mortality at 300 ppm (in the assay with Bean Aphid (Aphis fabae) (setting [3]); in assay [1] (setting [4]); in assay [2] (setting [5])) was at least 86% in each case.

As to `CCN(C(C)=O)S(=O)(=O)c1c(F)ccc(OC)c1C#N` [Example 16], the mortality at 300 ppm in assay [1] (setting [4]) and in assay [2] (setting [5]) was at least 86% in each case.

Turning to `CO/C(C)=N\S(=O)(=O)c1cccc(C)c1C#N` [Example 34, 2-Cyano-N-(1-methoxyethylidene)-3-methyl-benzenesulfonamide], the mortality at 300 ppm in assay [1] (setting [4]) and in assay [2] (setting [5]) was at least 86% in each case.

With `Cc1cccc(S(=O)(=O)N2CCCCC2=O)c1C#N` [Example 19], in assay [1] (setting [4]), the mortality at 300 ppm was at least 86%.

`Cc1cccc(S(=O)(=O)n2ccc(Br)c2)c1C#N` [Example 45, 2-Methyl-6-(3-bromo-pyrrole-1-sulfonyl)-benzonitrile]: the mortality at 300 ppm in assay [1] (setting [4]) and in assay [2] (setting [5]) was at least 86% in each case.

In the case of `Cc1cccc(S(=O)(=O)n2ccc(CO)c2)c1C#N` [Example 43], the mortality at 300 ppm in assay [1] (setting [4]) and in assay [2] (setting [5]) was at least 86% each time.

Take `Cc1cccc(S(=O)(=O)n2ccnc2)c1C#N` [Example 48, 2-Methyl-6-(imidazole-1-sulfonyl)-benzonitrile]: the mortality at 300 ppm in assay [1] (setting [4]) and in assay [2] (setting [5]) was at least 86% throughout.

Take `C=CCOC(=O)N(CC)S(=O)(=O)c1cccc(C)c1C#N` [Example 27]: the mortality at 300 ppm (in the assay on Bean Aphid (Aphis fabae); in assay [1]; in assay [2]) was at least 86% each time.

Regarding `CC(=O)NS(=O)(=O)c1cccc(C)c1C#N` [Example 1], the mortality at 300 ppm in assay [1] (setting [4]) and in assay [2] (setting [5]) was at least 86% in each case.

As to `N#Cc1c(OC(F)F)cccc1S(=O)(=O)N=S1CCCC1` [Example 39], the mortality at 300 ppm in assay [1] (setting [4]) and in assay [2] (setting [5]) was at least 86% each time.

Take `COC(=NS(=O)(=O)c1cccc(C)c1C#N)OC` [Example 32, 2-Cyano-N-dimethoxymethylene-3-methyl-benzenesulfonamide]: the mortality at 300 ppm (with Bean Aphid (Aphis fabae) (setting [3]); in assay [1] (setting [4])) was at least 86% in each case.

For the molecule `CCC(=O)N(CC)S(=O)(=O)c1cccc(C)c1C#N` [Example 5], the mortality at 300 ppm (in the assay on Bean Aphid (Aphis fabae) (setting [3]); in assay [1] (setting [4]); in assay [2] (setting [5])) was at least 86% each time.

As to `CC(=O)N(C(C)C)S(=O)(=O)c1cccc(C)c1C#N` [Example 9], the mortality at 300 ppm in assay [1] (setting [4]) and in assay [2] (setting [5]) was at least 86% throughout.

`Cc1cccc(S(=O)(=O)/N=C/N(C)C)c1C#N` [Example 35, 2-Cyano-3-methyl-N-dimethylaminomethylene-benzenesulfonamide]: the mortality at 300 ppm (in the assay on Bean Aphid (Aphis fabae) (setting [3]); in assay [1] (setting [4]); in assay [2] (setting [5])) was at least 86% in each case.

Turning to `CCC(C)NC(=O)N(CC)S(=O)(=O)c1cccc(C)c1C#N` (centres unmarked) [Example 24], the mortality at 300 ppm in assay [1] (setting [4]) is at least 86%.

Turning to `C=CC(=O)N(CC)S(=O)(=O)c1cccc(C)c1C#N` [Example 10], the mortality at 300 ppm in assay [1] (setting [4]) was at least 86%.

Regarding `Cc1cccc(S(=O)(=O)N(C(=O)C(F)(F)F)C(C)C)c1C#N` [Example 12], the mortality at 300 ppm (in the assay on Bean Aphid (Aphis fabae) (setting [3]); in assay [1] (setting [4]); in assay [2] (setting [5])) was at least 86% each time.

Take `C#CCN(C(=O)C(F)(F)F)S(=O)(=O)c1cccc(C)c1C#N` [Example 11]: the mortality at 300 ppm (with Bean Aphid (Aphis fabae) (setting [3]); in assay [1] (setting [4]); in assay [2] (setting [5])) was at least 86% throughout.

On to `CCO/C(=N\S(=O)(=O)c1cccc(C)c1C#N)NC(C)(C)C` [Example 30], for which the mortality at 300 ppm in the assay with Bean Aphid (Aphis fabae) (setting [3]) was at least 86%.

Turning to `Cc1cccc(S(=O)(=O)N2CCCC2=O)c1C#N` [Example 18, 2-Methyl-6-(2-oxo-pyrrolidine-1-sulfonyl)benzonitrile], the mortality at 300 ppm (in the assay on Bean Aphid (Aphis fabae) (setting [3]); in assay [1] (setting [4])) was at least 86% throughout.

Regarding `CCN(C(=O)c1ccccc1)S(=O)(=O)c1cccc(C)c1C#N` [Example 17], the mortality at 300 ppm (in the assay on Bean Aphid (Aphis fabae) (setting [3]); in assay [1] (setting [4])) was at least 86% in each case.

Consider `CCN(C(=O)Nc1ccccc1)S(=O)(=O)c1cccc(C)c1C#N` [Example 22, N-Ethyl-N-(2-cyano-3-methyl-benzenesulfonyl)-N′-phenyl urea], for which the mortality at 300 ppm in assay [1] (setting [4]) and in assay [2] (setting [5]) was at least 86% each time.

`COc1cccc(S(=O)(=O)N(OC)C(C)=O)c1C#N` [Example 3]: the mortality at 300 ppm in assay [1] (setting [4]) and in assay [2] (setting [5]) was at least 86% in each case.

The values above are taken from US20080300280A1, “Cyanobenzene Compounds for Combating Animal Pests” (priority 2005, published 2008).
